According to patent EP3828186B1:
Like-named read-outs stand apart in the source and are kept apart here.

Details: rcm bond, Grubbs II

C[C@@H]1/C=C/C[C@H](NC(=O)OC(C)(C)C)c2cc(ccn2)-c2c(cnn2C(F)F)NC1=O
ring closure, yield of all isomers (from C=CC[C@H](NC(=O)OC(C)(C)C)c1cc(-c2c(NC(=O)[C@H](C)C=C)cnn2C(F)F)ccn1, EtOAc, 5.0 mM, 77.0 °C, 24.0 h): 76%

C[C@@H]1/C=C/C[C@H](NC(=O)OC(C)(C)C)c2cc(ccn2)-c2c(cnn2C)NC1=O
ring closure, yield of all isomers (from C=CC[C@H](NC(=O)OC(C)(C)C)c1cc(-c2c(NC(=O)[C@H](C)C=C)cnn2C)ccn1, DCE, 34.7 mM, 120.0 °C, 0.5 h): 23%

C[C@@H]1/C=C/C[C@H](NC(=O)OC(C)(C)C)c2ccnc(c2)-c2c(cnn2C)NC1=O
ring closure, yield of all isomers (from C=CC[C@H](NC(=O)OC(C)(C)C)c1ccnc(-c2c(NC(=O)[C@H](C)C=C)cnn2C)c1, DCE, 18.8 mM, 120.0 °C, 0.5 h): 19%

[2H]C([2H])([2H])n1ncc2c1-c1ccnc(c1)[C@@H](NC(=O)OC(C)(C)C)CC=C[C@@H](C)C(=O)N2
ring closure, yield of all isomers (from [2H]C([2H])([2H])n1ncc(NC(=O)[C@H](C)C=C)c1-c1ccnc([C@H](CC=C)NC(=O)OC(C)(C)C)c1, DCE, 13.2 mM, 120.0 °C, 0.5 h): 26%

C[C@@H]1/C=C/C[C@H](NC(=O)OCc2ccccc2)c2cc(ccn2)-c2c(cnn2COCC[Si](C)(C)C)NC1=O
ring closure, yield of all isomers (from C=CC[C@H](NC(=O)OCc1ccccc1)c1cc(-c2c(NC(=O)[C@H](C)C=C)cnn2COCC[Si](C)(C)C)ccn1, DCE, 108.0 mM, 120.0 °C, 0.5 h): 42%
